# Results reported in patent publication US9637453B2, “3-spirocyclic-6-hydroxamic acid tetralins as HDAC inhibitors” (Forma Therapeutics, Inc., priority 2015, dated 2017).
# Experiments:
# [1] = biological target: T1, Full length human recombinant HDAC11 (Homo sapiens, UniProt Q96DB2); test: In vitro histone deacetylase assay, enzymatic HDAC11 (electrophoretic mobility shift assay); format: biochemical; conditions: 10 nM HDAC11; 2 μM peptide substrate FAM-RHKK(tri-fluor-Ac)—NH2; 25° C.; 12 concentrations; read-out: HDAC11 Activity Range (IC50)
# T1 construct: Full length human recombinant HDAC6 and HDAC11 proteins were expressed in baculoviral system
# T1 sequence (Q96DB2 1-347): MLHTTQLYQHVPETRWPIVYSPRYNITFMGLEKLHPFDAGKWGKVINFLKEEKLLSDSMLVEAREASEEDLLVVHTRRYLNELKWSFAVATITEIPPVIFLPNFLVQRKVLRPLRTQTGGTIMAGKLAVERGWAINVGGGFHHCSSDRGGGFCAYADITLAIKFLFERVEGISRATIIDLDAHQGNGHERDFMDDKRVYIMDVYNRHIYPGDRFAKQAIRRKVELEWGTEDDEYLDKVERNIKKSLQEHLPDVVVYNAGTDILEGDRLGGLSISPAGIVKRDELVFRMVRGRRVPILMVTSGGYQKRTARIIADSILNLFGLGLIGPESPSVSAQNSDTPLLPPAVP
# Procedure, shortened: (§1)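 Baculovirus-expressed full-length enzymes (HDAC6 1 nM, FAM-RHKK(Ac)-NH2; HDAC11 10 nM, FAM-RHKK(tri-fluor-Ac)-NH2), 2 μM substrate, HEPES pH 7.5, 25°C, 12-point 3× dilutions. Product/substrate separated by microfluidic mobility shift after SDS quench; IC50 from 4-parameter fit, reported as +/++/+++ bins.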
# [2] = biological target: T2, Full length human recombinant HDAC6 (Homo sapiens, UniProt Q9UBN7); test: In vitro histone deacetylase assay, enzymatic HDAC6 (electrophoretic mobility shift assay); format: biochemical; conditions: 1 nM HDAC6; 2 μM peptide substrate FAM-RHKK(Ac)—NH2; 25° C.; 12 concentrations; read-out: HDAC6 Activity Range (IC50)
# T2 construct: Full length human recombinant HDAC6 and HDAC11 proteins were expressed in baculoviral system
# T2 sequence (Q9UBN7 1-1215): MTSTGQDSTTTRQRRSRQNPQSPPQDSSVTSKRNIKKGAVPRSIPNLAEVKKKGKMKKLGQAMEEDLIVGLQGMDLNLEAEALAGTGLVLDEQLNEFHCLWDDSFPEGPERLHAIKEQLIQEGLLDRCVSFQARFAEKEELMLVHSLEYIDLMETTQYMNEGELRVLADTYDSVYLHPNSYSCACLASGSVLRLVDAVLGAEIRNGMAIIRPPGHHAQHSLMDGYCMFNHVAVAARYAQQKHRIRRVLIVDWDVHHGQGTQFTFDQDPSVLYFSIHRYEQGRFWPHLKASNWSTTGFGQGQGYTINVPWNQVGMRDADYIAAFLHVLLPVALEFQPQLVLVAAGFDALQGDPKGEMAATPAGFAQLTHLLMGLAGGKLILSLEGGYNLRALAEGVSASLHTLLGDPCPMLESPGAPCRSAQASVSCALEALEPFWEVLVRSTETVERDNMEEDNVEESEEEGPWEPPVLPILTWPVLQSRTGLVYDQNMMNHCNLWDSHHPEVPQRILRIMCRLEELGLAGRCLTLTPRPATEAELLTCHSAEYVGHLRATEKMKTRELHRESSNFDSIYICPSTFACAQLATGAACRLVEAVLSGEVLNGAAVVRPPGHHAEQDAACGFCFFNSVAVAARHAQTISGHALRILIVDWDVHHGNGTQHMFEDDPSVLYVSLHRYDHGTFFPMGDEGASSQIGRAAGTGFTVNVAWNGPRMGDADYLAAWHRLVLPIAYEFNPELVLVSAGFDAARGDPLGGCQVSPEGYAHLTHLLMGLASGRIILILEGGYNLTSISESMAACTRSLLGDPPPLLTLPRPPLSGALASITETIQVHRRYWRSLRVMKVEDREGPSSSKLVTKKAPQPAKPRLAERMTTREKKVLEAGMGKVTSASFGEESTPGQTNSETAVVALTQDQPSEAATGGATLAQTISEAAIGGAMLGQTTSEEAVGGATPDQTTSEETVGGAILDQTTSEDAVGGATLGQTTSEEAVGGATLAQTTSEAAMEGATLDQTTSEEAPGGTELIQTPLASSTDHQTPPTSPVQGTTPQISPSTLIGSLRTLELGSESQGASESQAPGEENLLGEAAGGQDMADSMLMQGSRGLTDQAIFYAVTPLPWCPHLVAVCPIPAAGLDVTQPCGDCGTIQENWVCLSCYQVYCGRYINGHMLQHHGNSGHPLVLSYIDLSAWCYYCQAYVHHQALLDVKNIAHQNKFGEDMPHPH
# Procedure, shortened: as §1
IC50 [1],IC50 [2],Structure (SMILES)
≤ 0.1 µM,≤ 0.1 µM,"COc1ccc(CN2CC[C@]3(CCc4ccc(C(=O)NO)cc4C3)C2=O)cc1 [Compound I-102, (R)—N-hydroxy-1′-(4-methoxybenzyl)-2′-oxo-3,4-dihydro-1H-spiro[naphthalene-2,3′-pyrrolidine]-7-carboxamide]"
≤ 0.1 µM,≤ 0.1 µM,"O=C(NO)c1ccc2c(c1)C[C@]1(CC2)CCN(Cc2ccccc2F)C1=O [Compound I-103, (R)-1′-(2-fluorobenzyl)-N-hydroxy-2′-oxo-3,4-dihydro-1H-spiro[naphthalene-2,3′-pyrrolidine]-7-carboxamide]"
≤ 0.1 µM,≤ 0.1 µM,"O=C(NO)c1ccc2c(c1)C[C@]1(CC2)CCN(Cc2ccc3ccccc3c2)C1=O [Compound I-104, (R)—N-hydroxy-1′-(naphthalen-2-ylmethyl)-2′-oxo-3,4-dihydro-1H-spiro[naphthalene-2,3′-pyrrolidine]-7-carboxamide]"
≤ 0.1 µM,≤ 0.1 µM,"O=C(NO)c1ccc2c(c1)C[C@]1(CC2)CCN(Cc2ccccc2OC(F)F)C1=O [Compound I-105, (R)-1′-(2-(difluoromethoxy)benzyl)-N-hydroxy-2′-oxo-3,4-dihydro-1H-spiro[naphthalene-2,3′-pyrrolidine]-7-carboxamide]"
≤ 0.1 µM,≤ 0.1 µM,"O=C(NO)c1ccc2c(c1)C[C@]1(CC2)CCN(c2ccc(Oc3ccccc3)cc2)C1=O [Compound I-106, (R)—N-hydroxy-2′-oxo-1′-(4-phenoxyphenyl)-3,4-dihydro-1H-spiro[naphthalene-2,3′-pyrrolidine]-7-carboxamide]"
≤ 0.1 µM,≤ 0.1 µM,"O=C(NO)c1ccc2c(c1)C[C@]1(CC2)CCN(c2cnc3ccccc3c2)C1=O [Compound I-107, (R)—N-hydroxy-2′-oxo-1′-(quinolin-3-yl)-3,4-dihydro-1H-spiro[naphthalene-2, 3′-pyrrolidine]-7-carboxamide]"
> 0.5 µM,≤ 0.1 µM,"O=C(NO)c1ccc2c(c1)C[C@]1(CC2)CCN(c2cccc3c2OCC3)C1=O [Compound I-108, (R)-1′-(2,3-dihydrobenzofuran-7-yl)-N-hydroxy-2′-oxo-3,4-dihydro-1H-spiro[naphthalene-2,3′-pyrrolidine]-7-carboxamide]"
> 0.5 µM,≤ 0.1 µM,"Cc1nn(C)cc1N1CC[C@]2(CCc3ccc(C(=O)NO)cc3C2)C1=O [Compound I-109, (R)-1′-(1,3-dimethyl-1H-pyrazol-4-yl)-N-hydroxy-2′-oxo-3,4-dihydro-1H-spiro[naphthalene-2,3′-pyrrolidine]-7-carboxamide]"
0.1 to 0.5 µM,≤ 0.1 µM,"O=C(NO)c1ccc2c(c1)C[C@]1(CC2)CCN(c2ccc3nccn3c2)C1=O [Compound I-110, (R)—N-hydroxy-1′-(imidazo[1,2-a]pyridin-6-yl)-2′-oxo-3,4-dihydro-1H-spiro[naphthalene-2,3′-pyrrolidine]-7-carboxamide]"
0.1 to 0.5 µM,≤ 0.1 µM,"O=C(NO)c1ccc2c(c1)C[C@]1(CC2)CCN(c2cnc3ccccn23)C1=O [Compound I-111, (R)—N-hydroxy-1′-(imidazo[1,2-a]pyridin-3-yl)-2′-oxo-3,4-dihydro-1H-spiro[naphthalene-2,3′-pyrrolidine]-7-carboxamide]"
> 0.5 µM,≤ 0.1 µM,"O=C(NO)c1ccc2c(c1)C[C@@]1(CC2)CCN(c2ccc(Cl)c(Cl)c2)C1=O [Compound I-112, (S)-1′-(3,4-dichlorophenyl)-N-hydroxy-2′-oxo-3,4-dihydro-1H-spiro[naphthalene-2,3′-pyrrolidine]-7-carboxamide]"

# The remaining lines, values behind:
Structure (SMILES),IC50 [1],IC50 [2]
"O=C(NO)c1ccc2c(c1)C[C@]1(CC2)CCN(Cc2ccc3nonc3c2)C1=O [Compound I-91, (R)-1′-(benzo[c][1,2,5]oxadiazol-5-ylmethyl)-N-hydroxy-2′-oxo-3,4-dihydro-1H-spiro[naphthalene-2,3′-pyrrolidine]-7-carboxamide]",≤ 0.1 µM,≤ 0.1 µM
"O=C(NO)c1ccc2c(c1)C[C@]1(CC2)CCN(CC(=O)N2CCOCC2)C1=O [Compound I-92, (R)—N-hydroxy-1′-(2-morpholino-2-oxoethyl)-2′-oxo-3,4-dihydro-1H-spiro[naphthalene-2,3′-pyrrolidine]-7-carboxamide]",> 0.5 µM,≤ 0.1 µM
"COc1ccccc1CN1CC[C@]2(CCc3ccc(C(=O)NO)cc3C2)C1=O [Compound I-93, (R)—N-hydroxy-1′-(2-methoxybenzyl)-2′-oxo-3,4-dihydro-1H-spiro[naphthalene-2,3′-pyrrolidine]-7-carboxamide]",0.1 to 0.5 µM,≤ 0.1 µM
"O=C(NO)c1ccc2c(c1)C[C@]1(CC2)CCN(Cc2cc(Cl)ccc2Cl)C1=O [Compound I-94, (R)-1′-(2,5-dichlorobenzyl)-N-hydroxy-2′-oxo-3,4-dihydro-1H-spiro[naphthalene-2,3′-pyrrolidine]-7-carboxamide]",≤ 0.1 µM,≤ 0.1 µM
"O=C(NO)c1ccc2c(c1)C[C@]1(CC2)CCN(Cc2c(Cl)cccc2Cl)C1=O [Compound I-95, (R)-1′-(2,6-dichlorobenzyl)-N-hydroxy-2′-oxo-3,4-dihydro-1H-spiro[naphthalene-2,3′-pyrrolidine]-7-carboxamide]",> 0.5 µM,≤ 0.1 µM
"COc1cccc(CN2CC[C@]3(CCc4ccc(C(=O)NO)cc4C3)C2=O)c1 [Compound I-96, (R)—N-hydroxy-1′-(3-methoxybenzyl)-2′-oxo-3,4-dihydro-1H-spiro[naphthalene-2,3′-pyrrolidine]-7-carboxamide]",0.1 to 0.5 µM,≤ 0.1 µM
"O=C(NO)c1ccc2c(c1)C[C@]1(CC2)CCN(Cc2cccnc2)C1=O [Compound I-97, (R)—N-hydroxy-2′-oxo-1′-(pyridin-3-ylmethyl)-3,4-dihydro-1H-spiro[naphthalene-2,3′-pyrrolidine]-7-carboxamide]",> 0.5 µM,≤ 0.1 µM
"O=C(NO)c1ccc2c(c1)C[C@]1(CC2)CCN(Cc2ccccn2)C1=O [Compound I-98, (R)—N-hydroxy-2′-oxo-1′-(pyridin-2-ylmethyl)-3,4-dihydro-1H-spiro[naphthalene-2,3′-pyrrolidine]-7-carboxamide]",> 0.5 µM,≤ 0.1 µM
"O=C(NO)c1ccc2c(c1)C[C@]1(CC2)CCN(Cc2cccc(F)c2)C1=O [Compound I-99, (R)-1′-(3-fluorobenzyl)-N-hydroxy-2′-oxo-3,4-dihydro-1H-spiro[naphthalene-2,3′-pyrrolidine]-7-carboxamide]",≤ 0.1 µM,≤ 0.1 µM
"O=C(NO)c1ccc2c(c1)C[C@]1(CC2)CCN(Cc2ccc(OC(F)(F)F)cc2)C1=O [Compound I-100, (R)—N-hydroxy-2′-oxo-1′-(4-(trifluoromethoxy)benzyl)-3,4-dihydro-1H-spiro[naphthalene-2,3′-pyrrolidine]-7-carboxamide]",≤ 0.1 µM,≤ 0.1 µM
"O=C(NO)c1ccc2c(c1)C[C@]1(CC2)CCN(Cc2cccc(Cl)c2)C1=O [Compound I-101, (R)-1′-(3-chlorobenzyl)-N-hydroxy-2′-oxo-3,4-dihydro-1H-spiro[naphthalene-2,3′-pyrrolidine]-7-carboxamide]",≤ 0.1 µM,≤ 0.1 µM
